Measurements taken from patent US4560557A, “Silicon and sulfur steroids as irreversible inhibitors of hormone biosynthesis” (University Patents, Inc., priority 1983, dated 1985).

How the values were obtained:
[1] = tested on: human adrenal cells; assay: ACTH-stimulated cortisol production by human adrenal cell suspensions; assay type: cell-based; settings: for time dependence of inhibition of cortisol production: FIG. 4, FIG. 5; for inhibition of ACTH-stimulated cortisol production: human cells
Text: (§1) Additionally data showing that the silicon and sulfur-containing compounds of the present invention are effective at halting steroid hormone biosynthesis when given at low concentrations to suspensions of human and rat adrenal cells are depicted in the following figures and table.

[2] = tested on: cytochrome P-450 cholesterol side chain cleavage enzyme (P-450scc); assay: P-450scc inactivation, preincubation study (pregnenolone formation from [3H]cholesterol); assay type: biochemical; settings: NADPH and/or O2, FIG. 1: P450 1.35 μM, steroid 20 μM
Procedure: As mentioned previously, the compounds of the present invention are potent inhibitors of the conversion of cholesterol to pregnenolone.
The final turnover mixture contained 2.5 μM adrenodoxin, 150 nM adrenodoxin reductase, 50 mM K^+ MOPS (pH 7.2), 10 mM MgCl2, 0.2% Tween 20, 1 unit/mL catalase, a NADPH-generating system of 16 μM NADPH, 3 mM G6P, and 1 unit/mL […]. For a typical preincubation experiment, inhibitor was added as an ethanol solution (2-10 mM) into the P-450 turnover mixture at 37° C. and the reactions were started by addition of NADPH stock solution. After, 0, 5, 10, 15, 30, or 45 min. of incubation, an aliquot of this mixture (200μ) was introduced into 1.8 ml of the turnover mixture containing [1, 2-^3 H] cholesterol (100 μM 10,000 dpm/nmol). After 10 min., the reaction was terminated by acidification, and [4-^- C] prengenolone were added as an internal standard. The resulting mixture was extracted using ethyl acetate and evaporated to dryness. The product pregnenolone was separated on silica gel TLC plates (Baker-flex) using 1:1 ethyl acetate-hexane as the solvent. The product formation was determined from the ratio of ^3 H to ^14 C in the recovered pregnenolone.
The P450 concentration was 1.35 μM and the steroid was 20 μM=NADPH; 0=no inhibitor+NADPH; 0=NADPH.

[3] = tested on: rat adrenal cells; assay: Time and concentration dependence of effects on ACTH-stimulated corticosterone production by rat adrenal cells; assay type: cell-based; settings: for time dependence of inhibition of corticosterone production: FIG. 2, FIG. 3; for inhibition of ACTH-stimulated corticosterone production: rat cells
Procedure: as §1
Steroid was added at […]. […] At 10 μM 20 OH TMS steroid, corticosterone production is obliterated by 40 min.
Steroid was added at t=-10 min.

[4] = tested on: rat adrenocortical cells; assay: Effects of cholesterol analogues on adrenal cell corticosterone production (with or without ACTH); assay type: cell-based
Text: When rat adrenocortical cells were stimulated with ACTH in the presence of the P-450 scc inhibitors of the present invention, and the production of cortiscoterone measured, less corticosterone was produced in the presence of the compounds of the present invention, then when those compounds were absent.
Corticosterone production rates by non-stimulated rat adrenal cell suspensions are approximately one-fifth those of ACTH stimulated rates. […] This property, combined with P-450 scc inhibitors with and without polar side chains was used to determine how ACTH stimulation results in increased conversion of endogenous cholesterol to corticosterone.
Cells (30,000/ml) were preincubated with steroid for 10 minutes.
Maximally stimulating levels of ACTH were then added and the
incubation continued for another 60 minutes. The incubations were
then quenched, and samples assayed for
corticosterone fluorometrically.

[5] = ACTH + steroid 2 ug/ml, ACTH only = 100, 10 min preincubation, 60 min incubation
[6] = FIG. 5, 10 μM for the 20(S) compound

Compound: 22 (trimethylisilyl pregnenol)
- inhibition of cortisol production ([1]; FIG. 4): little inhibitory effect on cortisol production

Compound: C[C@]12CC[C@H]3[C@@H](CC=C4C[C@@H](O)CC[C@@]43C)[C@@H]1CC[C@@H]2[C@@](C)(O)CC[Si](C)(C)C [20 OH TMS, 20-(2-Trimethylsilyl-ethyl) pregnen-3, 20a-diol]
- loss of enzyme activity / P-450 scc inhibition [2]: P-450 scc inhibition
- loss of enzyme activity / P-450 scc inhibition ([2]; listed as trimethyl silyl-containing compound): time-dependent loss of enzyme activity
- inhibition of cortisol production ([1]; FIG. 4): strongly inhibits cortisol production
- time dependence of inhibition of cortisol production [1]: probably in a time dependent manner
- inhibition of ACTH-stimulated cortisol production [1]: inhibits
- corticosterone production ([3]; 10 μM steroid, by 40 min (FIG. 2)): obliterated
- time dependence of inhibition of corticosterone production [3]: strongly time dependent
- inhibition of ACTH-stimulated corticosterone production [3]: inhibits

Compound: C[C@H](CCCC(C)(C)O)[C@H]1CC[C@H]2[C@@H]3CC=C4C[C@@H](O)CC[C@]4(C)[C@H]3CC[C@]12C [25 hydroxycholesterol, reference compound]
- CORTICOSTERONE PRODUCED (%) [4, 5]: 117.0%
- activity at 2 µg/mL ([4]; Rattus norvegicus, 1 h, steroid 2 ug/ml without ACTH, ACTH only = 100, read-out: CORTICOSTERONE PRODUCED (%)): 21.9%
- activity at 5 µg/mL ([4]; Rattus norvegicus, 1 h, steroid 5 ug/ml without ACTH, ACTH only = 100, read-out: CORTICOSTERONE PRODUCED (%)): 30.4%
- corticosterone production rate relative to ACTH stimulated cells ([4]; non-stimulated cells): as much as one-half those of ACTH stimulated cells

Compound: CC(C)CCS[C@@H](C)[C@H]1CC[C@H]2[C@@H]3CC=C4C[C@@H](O)CC[C@]4(C)[C@H]3CC[C@]12C [20(S)22 thiacholesterol]
- CORTICOSTERONE PRODUCED (%) ([4]; 25 hydroxycholesterol 5 ug/ml + 20(S)22 thialcholesterol 5 ug/ml, without ACTH, ACTH only = 100, 60 min): 15.5%
- CORTICOSTERONE PRODUCED (%) [4, 5]: 54.1%
- corticosterone production (in words) ([4]; ACTH-stimulated cells): decreased corticosterone production
- time dependence of inhibition of cortisol production [1]: probably in a time dependent manner
- inhibition of cortisol production [1, 6]: strongly inhibited
- inhibition of ACTH-stimulated cortisol production [1]: inhibits
- time dependence of inhibition of corticosterone production [3]: only slightly time dependent
- concentration dependence of inhibition of corticosterone production ([3]; FIG. 3): strongly concentration dependent
- inhibition of ACTH-stimulated corticosterone production [3]: inhibits

Compound: CC(C)CCS[C@H](C)[C@H]1CC[C@H]2[C@@H]3CC=C4C[C@@H](O)CC[C@]4(C)[C@H]3CC[C@]12C [20(R)22 thiacholesterol]
- CORTICOSTERONE PRODUCED (%) [4, 5]: 117.9%
- time dependence of inhibition of cortisol production [1]: not time dependent
- inhibition of cortisol production [1, 6]: inhibited slightly
